In US9700546B2, “Trivalent chromium compounds, compositions and methods of use” (INTERHEALTH NUTRACEUTICALS, INC., priority 2006, dated 2017):

Tests used:
Obese Zucker rats [1] = experiment: In vivo assessment in obese Zucker rats: key biological parameters (fasting glucose, HbA1c, vitamin C, GSH, RBC lipid peroxidation); conditions: obese Zucker rats, daily 400 μg Cr(III)/kg, 8 weeks, mean; for RBC Lipid Peroxidase: malondialdehyde by thiobarbituric acid; for Fasting Glucose: fasted overnight; for Vitamin C: plasma
Obese Zucker rats [2] = experiment: In vivo assessment in obese Zucker rats: vascular inflammation markers (MCP-1, CRP, RBP-4, leptin, ICAM, adiponectin); conditions: obese Zucker rats, daily 400 μg Cr(III)/kg, 8 weeks, mean; for Adiponectin / CRP / ICAM / MCP-1: plasma, ELISA
Obese Zucker rats [3] = experiment: In vivo assessment in obese Zucker rats: other vascular inflammation markers (cAMP, TNFα, IL-6, OxyDNA); conditions: obese Zucker rats, daily 400 μg Cr(III)/kg, 8 weeks, mean ± SE; for OxyDNA: oxidative DNA damage
Obese Zucker rats [4] = experiment: In vivo assessment in obese Zucker rats: body weight and food intake; conditions: obese Zucker rats, daily 400 μg Cr(III)/kg, mean; for Food Intake 5 wks: at 5 weeks; for Food Intake 7 wks: at 7 weeks
Obese Zucker rats [5] = conditions: rat, in vivo
Obese Zucker rats [6] = experiment: In vivo assessment in obese Zucker rats: blood lipid profile (total cholesterol, triglycerides, HDL); conditions: daily 400 μg Cr(III)/kg, 8 weeks, mean
[7] = men and women; cited from earlier work

Compound | RBC Lipid Peroxidase (Obese Zucker rats [1]) [nmol/mL] | Fasting Glucose (Obese Zucker rats [1]) [mg/dL] | GSH (Obese Zucker rats [1]) [µmol/g] | HbA1c (Obese Zucker rats [1]) [%] | Vitamin C (Obese Zucker rats [1]) [mg %] | Leptin (Obese Zucker rats [2]) [pg/mL] | RBP-4 (Obese Zucker rats [2]) [ng/mL] | Adiponectin (Obese Zucker rats [2]) [ng/mL] | CRP (Obese Zucker rats [2]) [ng/mL] | ICAM (Obese Zucker rats [2]) [pg/mL] | IL-6 (Obese Zucker rats [3]) [pg/mL] | cAMP (Obese Zucker rats [3]) [pmol/mL] | OxyDNA (Obese Zucker rats [3]) [ng/mL] | Food Intake 5 wks (Obese Zucker rats [4]) [g/day] | Food Intake 7 wks (Obese Zucker rats [4]) [g/day] | HDL (Obese Zucker rats [6]) [mg/dL] | Total Cholesterol (Obese Zucker rats [6]) [mg/dL] | Triglyceride (Obese Zucker rats [6]) [mg/dL] | MCP-1 (Obese Zucker rats [2]) [pg/mL] | Total Chol/HDL (Obese Zucker rats [6]) [ratio] | further results
N[C@@H](CS)C(=O)O [Cys, Cysteine, reference compound] | 2.34 | 483.49 | 4.70 | 15.17 | 0.13 | 477.65 | 50915.00 | 11532.37 | 551.39 | 18512.88 | 95.33 ± 2.33 | 32.94 ± 1.79 | 54.56 ± 5.69 | 39.40 | 39.87 | 68.26 | 183.58 | 503.57 |  |  | TNFα (Obese Zucker rats [3]): 24.28 ± 3.84 pg/mL; ALT (Alanine Aminotransferease) (Obese Zucker rats [5]): 119.20 u/L; AP (Alkaline phosphatase) (Obese Zucker rats [5]): 36.40 u/L; AST (Aspartate Aminotransferase) (Obese Zucker rats [5]): 218.20 u/L; BUN (Blood Urea Nitrogen) (Obese Zucker rats [5]): 18.50 mg/dL; CRT (Creatinine) (Obese Zucker rats [5]): 0.42 mg/dL; Total Bilirubin (Obese Zucker rats [5]): 0.00 mg/dL
chromium polynicotinate |  |  |  |  |  |  |  |  |  |  |  |  |  |  |  |  |  |  |  |  | chromium absorbed (average) [7]: 0.2 µg
Chromium Dinicotinate Tryptophanate [Cr(nic)2Trp] | 1.96 | 513.43 | 5.35 | 15.55 | 0.13 | 363.21 | 60017.14 | 11752.86 | 617.66 | 17950.97 | 92.09 ± 1.89 | 30.36 ± 1.48 | 39.35 ± 3.48 | 40.49 | 40.78 | 69.43 | 183.17 | 470.67 | 2607.07 | 2.86 | 
Chromium Dinicotinate Glycinate [Cr(nic)2Gly, reference compound] | 2.11 | 448.29 | 4.86 | 14.45 | 0.15 | 461.16 | 54900.00 | 12552.86 | 535.98 | 16691.40 | 91.96 ± 3.83 | 31.40 ± 1.57 | 45.62 ± 1.86 | 34.29 | 37.14 | 64.57 | 193.14 | 610.33 | 2897.61 | 3.00 | 
